Key:
[1] = Stability of azacitidine in rat plasma exposed to various storage conditions; conditions: for Concentration found: n = 3
Procedure: The selectivity was assessed by comparing the chromatograms of six different batches of blank rat plasma with the corresponding spiked rat plasma. […] The linearity was assessed by weighted (1/x^2) least-squares analysis of six different calibration curves. The LLOQ of the assay was the lowest concentration of the analyte with the recommended precision and accuracy less than 20%. The intra- and inter-day precision (the relative standard deviation, RSD) and accuracy (the relative error, RE) were determined by the analysis of low, medium, and high QC samples (n = 6) on 3 different days. The stability of the QC samples (n = 3) in three complete freeze/thaw cycles (−80 to 20 °C), long-term sample storage (−80 °C for 30 days) and on the bench top (20 °C for 2 h) was assessed. The ready-for-injection stability of the extracted samples in the autosampler rack at 4 °C for 24 h was also evaluated. The analytes were considered stable when the accuracy bias was within ± 20% of the nominal concentration.

[2] = Pharmacokinetic study in rats following intravenous administration; format: in vivo; conditions: Sprague-Dawley, rat, plasma
Procedure: Male SD rats weighing from 210 to 240 g were used for the PK study. All animal experiments were performed in accordance with institutional guidelines and were approved by the University Committee on Use and Care of Animals, Shenyang Pharmaceutical University. […] Serial blood samples (0.2 mL) were obtained at 0.08, 0.17, 0.25, 0.5, 0.75, 1, 1.5, 2, 3, 4, 6, 8, 10 and 12 h after intravenous administration. All samples were placed into heparinised tubes. The rat plasma samples were centrifuged at 13,000 rpm for 10 min, and the plasma supernatant was collected. THU was added to the plasma supernatant at a final concentration of 100 µM. The plasma was frozen at −80 °C until analysis.

[3] = male SD rats, 2.5 mg/kg, mean ± SD, n = 3

Concentration found ([1]; extracted rat plasma samples, sample rack for 24 h at 4 °C, added 20 ng/mL): 23.8 ng/mL
Concentration found ([1]; extracted rat plasma samples, sample rack for 24 h at 4 °C, added 10,000 ng/mL): 9,966.3 ng/mL
Concentration found ([1]; rat plasma, Ambient, 2 h, added 20 ng/mL): 24.0 ng/mL
Concentration found ([1]; rat plasma, Ambient, 2 h, added 10,000 ng/mL): 10,388.5 ng/mL
Stability (change in azacitidine concentrations) ([1]; rat plasma, all storage conditions of Table 3): No significant changes
Concentration found ([1]; rat plasma, three freeze–thaw cycles, added 20 ng/mL): 24.0 ng/mL
Concentration found ([1]; rat plasma, three freeze–thaw cycles, added 10,000 ng/mL): 10,073.4 ng/mL
Concentration found ([1]; rat plasma, −80 °C, 30 days, added 20 ng/mL): 24.0 ng/mL
Concentration found ([1]; rat plasma, −80 °C, 30 days, added 10,000 ng/mL): 9,519.1 ng/mL
half-life ([2]; male SD rats, single dose 2.5 mg/kg, mean ± SD, n = 3, read-out: t1/2β (elimination half-life) (converted)): 30.4 ± 11.9 min
Vd [2, 3]: 2.07 ± 0.17 L/kg
clearance [2, 3]: 20.9 mL/min/kg
AUC(0-inf) ([2]; male, SD rats, single dose 2.5 mg/kg): 2000 ng·h/mL
Compound: Nc1ncn([C@@H]2O[C@H](CO)[C@@H](O)[C@H]2O)c(=O)n1 [Azacitidine]

Reference: publication PMC6271376 (Molecules, 2013)
